Results taken from patent US20260207602A1, “EGFR INHIBITORS” (Blueprint Medicines Corporation, priority 2022, published 2026).

How the values were obtained:
[1] = molecular target: intracellular phosphorylation of EGFR (Tyr1068) in PC-9 cells (Homo sapiens, UniProt P00533, DEL746-750); assay: PC-9 pEGFR AlphaLISA assay; format: cell-based; conditions: 4 hours incubation, read-out: Phos EGFR PC9 IC50
Method in brief: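 PC-9 cells (EGFR del746-750) in phenol-free DMEM/10% FBS, adhered overnight, then exposed to 10-point 4-fold compound dilutions for 4 h at 37 °C. Lysates assayed for pEGFR Tyr1068 by AlphaLISA SureFire Ultra; IC50 from percent pEGFR inhibition vs log concentration.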

[2] = molecular target: T1, EGFR L858R (Homo sapiens, UniProt P00533, L858R); assay: Biochemical EGFR inhibition assay (Caliper mobility shift), EGFR L858R; conditions: biochemical Caliper mobility shift assay, EGFR L858R enzyme; read-out: Enz EGFR L858R IC50
T1 construct: purchased SignalChem E10-122BG
Method in brief: (§1)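 Recombinant EGFR mutant phosphorylates 2.5 μM 5-FAM peptide at 1.0 mM ATP or ATP Km, in 100 mM HEPES pH 7.5, 10 mM MgCl2, 1 mM DTT, 1% DMSO, 25 °C to 10–20% conversion, EDTA stop. Caliper mobility shift separation; apparent IC50 from percent activity versus log concentration.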

[3] = molecular target: T2, EGFR (d746-750) (Homo sapiens, UniProt P00533, DEL746-750); assay: Biochemical EGFR inhibition assay (Caliper mobility shift), EGFR (d746-750); conditions: biochemical Caliper mobility shift assay, EGFR Exon 19-del enzyme; read-out: Enz EGFR Exon 19-del IC50
T2 construct: purchased SignalChem E10-122JG
Method in brief: as §1

Sequence of intracellular phosphorylation of EGFR (Tyr1068) in PC-9 cells (P00533 with tags, fused parts or gaps DEL746-750): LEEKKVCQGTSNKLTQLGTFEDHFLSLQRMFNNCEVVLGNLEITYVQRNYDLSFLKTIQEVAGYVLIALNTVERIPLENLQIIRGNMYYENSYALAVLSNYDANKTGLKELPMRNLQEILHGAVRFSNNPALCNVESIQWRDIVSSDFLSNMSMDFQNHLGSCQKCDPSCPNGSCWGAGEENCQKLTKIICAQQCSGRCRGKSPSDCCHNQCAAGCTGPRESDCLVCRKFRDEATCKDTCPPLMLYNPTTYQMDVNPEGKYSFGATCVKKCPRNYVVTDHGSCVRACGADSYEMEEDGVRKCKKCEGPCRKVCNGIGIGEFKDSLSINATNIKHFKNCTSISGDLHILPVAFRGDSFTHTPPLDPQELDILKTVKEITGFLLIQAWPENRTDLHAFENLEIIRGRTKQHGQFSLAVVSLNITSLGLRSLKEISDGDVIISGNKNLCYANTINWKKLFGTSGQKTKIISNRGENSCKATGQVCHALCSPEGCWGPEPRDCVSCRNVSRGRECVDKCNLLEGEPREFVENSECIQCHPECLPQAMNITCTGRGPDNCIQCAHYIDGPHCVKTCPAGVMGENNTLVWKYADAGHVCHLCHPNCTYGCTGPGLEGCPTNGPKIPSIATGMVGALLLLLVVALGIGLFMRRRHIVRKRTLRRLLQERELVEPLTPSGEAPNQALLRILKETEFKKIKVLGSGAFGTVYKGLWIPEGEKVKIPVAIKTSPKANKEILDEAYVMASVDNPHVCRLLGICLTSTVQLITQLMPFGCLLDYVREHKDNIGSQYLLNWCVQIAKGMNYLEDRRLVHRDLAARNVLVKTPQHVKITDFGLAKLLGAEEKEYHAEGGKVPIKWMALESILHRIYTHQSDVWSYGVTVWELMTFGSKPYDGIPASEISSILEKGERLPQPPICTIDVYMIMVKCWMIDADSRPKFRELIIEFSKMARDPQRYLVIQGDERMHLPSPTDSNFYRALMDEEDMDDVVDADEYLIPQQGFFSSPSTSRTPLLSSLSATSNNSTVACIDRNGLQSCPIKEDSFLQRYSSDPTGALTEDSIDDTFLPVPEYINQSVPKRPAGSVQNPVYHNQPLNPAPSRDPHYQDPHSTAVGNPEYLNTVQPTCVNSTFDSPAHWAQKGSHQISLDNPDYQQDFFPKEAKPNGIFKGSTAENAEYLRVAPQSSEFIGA
T2 sequence (P00533 with tags, fused parts or gaps DEL746-750 limits assumed): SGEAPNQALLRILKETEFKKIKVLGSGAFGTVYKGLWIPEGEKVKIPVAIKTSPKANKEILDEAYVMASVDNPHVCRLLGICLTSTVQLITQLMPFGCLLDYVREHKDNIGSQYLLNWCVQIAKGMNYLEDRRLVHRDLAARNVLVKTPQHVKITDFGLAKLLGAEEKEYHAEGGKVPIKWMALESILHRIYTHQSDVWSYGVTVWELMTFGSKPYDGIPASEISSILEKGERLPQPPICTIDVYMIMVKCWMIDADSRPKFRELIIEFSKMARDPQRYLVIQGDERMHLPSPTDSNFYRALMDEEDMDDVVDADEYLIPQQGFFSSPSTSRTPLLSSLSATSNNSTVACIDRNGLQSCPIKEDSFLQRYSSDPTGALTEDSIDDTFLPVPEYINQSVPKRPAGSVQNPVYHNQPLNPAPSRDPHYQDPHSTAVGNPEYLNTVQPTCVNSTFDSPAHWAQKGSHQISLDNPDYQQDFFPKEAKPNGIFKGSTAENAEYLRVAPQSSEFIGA
T1 sequence (P00533 25-1210 L858R): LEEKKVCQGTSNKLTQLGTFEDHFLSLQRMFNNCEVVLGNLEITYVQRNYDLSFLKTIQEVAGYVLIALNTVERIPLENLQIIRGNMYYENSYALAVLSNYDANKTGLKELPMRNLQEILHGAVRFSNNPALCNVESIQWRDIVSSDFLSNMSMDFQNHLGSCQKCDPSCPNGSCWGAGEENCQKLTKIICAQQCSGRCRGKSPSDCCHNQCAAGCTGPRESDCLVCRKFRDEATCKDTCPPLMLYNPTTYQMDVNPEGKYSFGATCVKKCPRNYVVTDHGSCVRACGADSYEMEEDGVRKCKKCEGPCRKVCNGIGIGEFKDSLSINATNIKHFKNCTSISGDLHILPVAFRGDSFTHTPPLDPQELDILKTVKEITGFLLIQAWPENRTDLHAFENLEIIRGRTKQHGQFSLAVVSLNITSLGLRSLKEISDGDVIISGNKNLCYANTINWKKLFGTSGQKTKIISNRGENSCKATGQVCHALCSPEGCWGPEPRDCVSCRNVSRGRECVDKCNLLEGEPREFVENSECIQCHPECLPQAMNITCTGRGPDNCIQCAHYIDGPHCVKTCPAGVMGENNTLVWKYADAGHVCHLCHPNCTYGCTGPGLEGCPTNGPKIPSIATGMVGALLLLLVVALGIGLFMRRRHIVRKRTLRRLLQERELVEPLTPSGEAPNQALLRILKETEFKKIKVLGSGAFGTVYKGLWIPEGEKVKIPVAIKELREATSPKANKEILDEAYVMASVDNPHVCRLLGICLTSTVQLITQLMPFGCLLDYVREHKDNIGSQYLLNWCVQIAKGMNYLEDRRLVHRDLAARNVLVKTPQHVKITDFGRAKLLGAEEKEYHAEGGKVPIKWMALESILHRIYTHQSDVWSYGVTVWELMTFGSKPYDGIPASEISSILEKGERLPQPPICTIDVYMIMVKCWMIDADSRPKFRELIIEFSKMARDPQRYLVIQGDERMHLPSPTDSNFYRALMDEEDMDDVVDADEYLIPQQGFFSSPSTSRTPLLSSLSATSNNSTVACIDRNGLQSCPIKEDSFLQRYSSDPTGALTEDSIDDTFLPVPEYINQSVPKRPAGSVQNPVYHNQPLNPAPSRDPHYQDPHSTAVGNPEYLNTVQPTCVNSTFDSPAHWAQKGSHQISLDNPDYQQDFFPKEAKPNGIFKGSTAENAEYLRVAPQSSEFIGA

IC50 [1] | IC50 [2] | IC50 [3] | Structure (SMILES)
10.1 to 50 nM | ≤ 10 nM | ≤ 10 nM | Cn1cc(-c2cc(OC3COCC3(F)F)c3c(Nc4ccc5ncsc5c4)ncnc3c2)cn1 (stereo not drawn) [Example 14, N-(5-((4,4-difluorotetrahydrofuran-3-yl)oxy)-7-(1-methyl-1H-pyrazol-4-yl)quinazolin-4-yl)benzo[d]thiazol-6-amine]
> 50.1 nM | 10.1 to 50 nM | 10.1 to 50 nM | Cc1ccnn1-c1cc(OC2CCOCC2)c2c(Nc3ccc4ncsc4c3)ncnc2c1 [Example 135, N-(7-(5-methyl-1H-pyrazol-1-yl)-5-((tetrahydro-2H-pyran-4-yl)oxy)quinazolin-4-yl)benzo[d]thiazol-6-amine]
10.1 to 50 nM | ≤ 10 nM | ≤ 10 nM | COC[C@@H](C)Oc1cc(N2CCNCC2)cc2ncnc(Nc3ccc4ncsc4c3)c12 [Example 195, (R)-N-(5-((1-methoxypropan-2-yl)oxy)-7-(piperazin-1-yl)quinazolin-4-yl)benzo[d]thiazol-6-amine]
10.1 to 50 nM | 10.1 to 50 nM | 10.1 to 50 nM | C[C@@H](Oc1cc(-c2cnn(C)c2)cc2ncnc(Nc3ccc4ncsc4c3)c12)C1CN(C)C1 (single isomer, unassigned) [Example 384]
10.1 to 50 nM | ≤ 10 nM | ≤ 10 nM | CN1CCC(C)(COc2cc(-c3cnn(C)c3)cc3ncnc(Nc4ccc5ncsc5c4)c23)C1=O (stereo not drawn) [Example 54, 3-(((4-(benzo[d]thiazol-6-ylamino)-7-(1-methyl-1H-pyrazol-4-yl)quinazolin-5-yl)oxy)methyl)-1,3-dimethylpyrrolidin-2-one]
≤ 10 nM | ≤ 10 nM | ≤ 10 nM | C[C@@H](Oc1cc(-c2cnn(C)c2)cc2ncnc(Nc3ccc4ncsc4c3F)c12)C1CCOCC1 (single isomer, unassigned) [Example 111]
≤ 10 nM | ≤ 10 nM | ≤ 10 nM | C[C@H](Oc1cc(-c2cnn(C)c2)cc2ncnc(Nc3ccc4ncsc4c3F)c12)C(=O)N1CCOCC1 (single isomer, unassigned) [Example 282]
10.1 to 50 nM | ≤ 10 nM | ≤ 10 nM | OC(Cn1cc(-c2cc(OC3CCOCC3)c3c(Nc4ccc5ncsc5c4)ncnc3c2)cn1)C(F)(F)F (stereo not drawn) [Example A57, 3-(4-(4-(benzo[d]thiazol-6-ylamino)-5-((tetrahydro-2H-pyran-4-yl)oxy)quinazolin-7-yl)-1H-pyrazol-1-yl)-1,1,1-trifluoropropan-2-ol]
10.1 to 50 nM | ≤ 10 nM | ≤ 10 nM | C[C@H](Oc1cc(N2CCN(C)C2=O)cc2ncnc(Nc3ccc4ncsc4c3)c12)C1COC1 (single isomer, unassigned) [Example 158]
10.1 to 50 nM | ≤ 10 nM | ≤ 10 nM | Cn1cc(-c2cc(OC[C@@H]3CCCO3)c3c(Nc4ccc5ncsc5c4)ncnc3c2)cn1 [Example 32, (S)-N-(7-(1-methyl-1H-pyrazol-4-yl)-5-((tetrahydrofuran-2-yl)methoxy)quinazolin-4-yl)benzo[d]thiazol-6-amine]
≤ 10 nM | ≤ 10 nM | ≤ 10 nM | Cn1cc(-c2cc(OC3CCCOC3)c3c(Nc4ccc5ncsc5c4)ncnc3c2)cn1 (stereo not drawn) [Example 414, N-(7-(1-methyl-1H-pyrazol-4-yl)-5-((tetrahydro-2H-pyran-3-yl)oxy)quinazolin-4-yl)benzo[d]thiazol-6-amine]
10.1 to 50 nM | 10.1 to 50 nM | ≤ 10 nM | COc1cc(O[C@H](C)CN(C)C)c2c(Nc3ccc4ncsc4c3F)ncnc2c1 [Example 146, (R)-N-(5-((1-(dimethylamino)propan-2-yl)oxy)-7-methoxyquinazolin-4-yl)-7-fluorobenzo[d]thiazol-6-amine]
10.1 to 50 nM | ≤ 10 nM | ≤ 10 nM | COc1cc2ncnc(Nc3ccc4ncsc4c3)c2cc1-c1cnn([C@@H]2CCNC[C@@H]2F)c1 (racemic) [Example 164, cis-N-(6-(1-((3R,4S)-3-fluoropiperidin-4-yl)-1H-pyrazol-4-yl)-7-methoxyquinazolin-4-yl)benzo[d]thiazol-6-amine]
≤ 10 nM | ≤ 10 nM | ≤ 10 nM | COc1nn(C)cc1-c1cc(O[C@H]2CCN(C)C[C@H]2F)c2c(Nc3ccc4ncsc4c3)ncnc2c1 [Example 364, N-(5-(((3R,4S)-3-fluoro-1-methylpiperidin-4-yl)oxy)-7-(3-methoxy-1-methyl-1H-pyrazol-4-yl)quinazolin-4-yl)benzo[d]thiazol-6-amine]
10.1 to 50 nM | 10.1 to 50 nM | 10.1 to 50 nM | COc1nn(C)cc1-c1cc(O[C@H]2CN(C)C[C@@H]2F)c2c(Nc3ccc4ncsc4c3)ncnc2c1 (single isomer, unassigned) [Example 377]
10.1 to 50 nM | ≤ 10 nM | ≤ 10 nM | CN1CC[C@H](Oc2cc(-c3cn(C)nc3OC(F)F)cc3ncnc(Nc4ccc5ncsc5c4)c23)[C@@H](F)C1 (single isomer, unassigned) [Example 368]

IC50 [1] | IC50 [2] | IC50 [3] | Structure (SMILES)
≤ 10 nM | ≤ 10 nM | ≤ 10 nM | CN1CC[C@@H](Oc2cc(-c3cnn(C)c3)cc3ncnc(Nc4ccc5ncsc5c4F)c23)[C@H](F)C1 [Example 349, 7-fluoro-N-(5-(((3R,4R)-3-fluoro-1-methylpiperidin-4-yl)oxy)-7-(1-methyl-1H-pyrazol-4-yl)quinazolin-4-yl)benzo[d]thiazol-6-amine]
≤ 10 nM | ≤ 10 nM | ≤ 10 nM | Cn1cc(-c2cc(OC3CCN(C4COC4)CC3)c3c(Nc4ccc5ncsc5c4F)ncnc3c2)cn1 [Example 315, 7-fluoro-N-(7-(1-methyl-1H-pyrazol-4-yl)-5-((1-(oxetan-3-yl)piperidin-4-yl)oxy)quinazolin-4-yl)benzo[d]thiazol-6-amine]
10.1 to 50 nM | ≤ 10 nM | ≤ 10 nM | CN1CC[C@@H](F)[C@@H](Oc2cc(-c3cnn(C)c3)cc3ncnc(Nc4ccc5ncsc5c4)c23)C1 (single isomer, unassigned) [Example 162]
10.1 to 50 nM | 10.1 to 50 nM | ≤ 10 nM | COc1nn(C)cc1-c1cc(O[C@H]2COC[C@@H]2O)c2c(Nc3ccc4ncsc4c3)ncnc2c1 (single isomer, unassigned) [Example A49]
10.1 to 50 nM | ≤ 10 nM | ≤ 10 nM | COc1cc(O[C@H](C)C2COC2)c2c(Nc3ccc4ncsc4c3F)ncnc2c1 (single isomer, unassigned) [Example 82]
10.1 to 50 nM | 10.1 to 50 nM | ≤ 10 nM | CO[C@H]1COC[C@@H]1Oc1cc(-c2cnn(C)c2)cc2ncnc(Nc3ccc4ncsc4c3)c12 (single isomer, unassigned) [Example A32]
10.1 to 50 nM | ≤ 10 nM | ≤ 10 nM | COc1nn(C)cc1-c1cc(O[C@H]2CN(C)C[C@H]2F)c2c(Nc3ccc4ncsc4c3)ncnc2c1 (single isomer, unassigned) [Example 374]
≤ 10 nM | ≤ 10 nM | ≤ 10 nM | COc1nn(C)cc1-c1cc(O[C@H]2CN(C)C[C@@H]2F)c2c(Nc3ccc4ncsc4c3)ncnc2c1 (single isomer, unassigned) [Example 378]
10.1 to 50 nM | ≤ 10 nM | ≤ 10 nM | COc1nn(C)cc1-c1cc(O[C@H]2CCN(C)C2=O)c2c(Nc3ccc4ncsc4c3)ncnc2c1 (single isomer, unassigned) [Example 74]
10.1 to 50 nM | ≤ 10 nM | ≤ 10 nM | COc1cc(O[C@H](C)C2COC2)c2c(Nc3ccc4ncsc4c3)ncnc2c1 [Example 124, (R)-N-(7-methoxy-5-(1-(oxetan-3-yl)ethoxy)quinazolin-4-yl)benzo[d]thiazol-6-amine]
≤ 10 nM | ≤ 10 nM | ≤ 10 nM | Cn1cc(-c2cc(OC3(C)CC3)c3c(Nc4ccc5ncsc5c4)ncnc3c2)cn1 [Example 57, N-(7-(1-methyl-1H-pyrazol-4-yl)-5-(1-methylcyclopropoxy)quinazolin-4-yl)benzo[d]thiazol-6-amine]
≤ 10 nM | ≤ 10 nM | ≤ 10 nM | COc1nn(C)cc1-c1cc(O[C@@H]2CCN(C)C[C@H]2F)c2c(Nc3ccc4ncsc4c3)ncnc2c1 (single isomer, unassigned) [Example 358]
≤ 10 nM | ≤ 10 nM | ≤ 10 nM | COCC[C@@H](C)Oc1cc(-c2cnn(C)c2)cc2ncnc(Nc3ccc4ncsc4c3F)c12 (single isomer, unassigned) [Example 108]
10.1 to 50 nM | ≤ 10 nM | ≤ 10 nM | C[C@@H](Oc1cc(N2CCN(C)CC2)cc2ncnc(Nc3ccc4ncsc4c3F)c12)[C@@H]1CCCO1 [Example 114, 7-fluoro-N-(7-(4-methylpiperazin-1-yl)-5-((R)-1-((S)-tetrahydrofuran-2-yl)ethoxy)quinazolin-4-yl)benzo[d]thiazol-6-amine]
≤ 10 nM | ≤ 10 nM | ≤ 10 nM | COc1nn(C)cc1-c1cc(OC2CC2)c2c(Nc3ccc4ncsc4c3)ncnc2c1 [Example 77, N-(5-cyclopropoxy-7-(3-methoxy-1-methyl-1H-pyrazol-4-yl)quinazolin-4-yl)benzo[d]thiazol-6-amine]
